{"source": "patent US20030018044A1", "about": "“Treatment of ocular disease” (priority 2000, published 2003)", "key": {"eye": {"system": "eye", "assay": "ocular toxicity after direct intraocular injection", "type": "in vivo, patient", "description": "The toxicity of tacrolimus, which had been reported with tacrolimus administered systemically, was thought to limit its intraocular use. The toxicity of tacrolimus administered intraocularly had not been evaluated. Ocular toxicity may manifest as a gross and/or histologic retinal and/orvitreous toxic reaction. Evidence of such a toxic reaction may include one or more of white vitreous bodies, white vitreous opacities, electroretinography abnormalities such as reduction in mean B-wave amplitude in both scotopic and photopic conditions, occlusion of the temporal retinal vessels, and fibrin deposits.\nAs used herein, a lack of substantial toxicity encompasses both the absence of any manifestations of toxicity, as well as manifestations of toxicity which one skilled in the art would consider not sufficiently detrimental to decrease or cease treatment.\nThe intravenous solution form of tacrolimus may be diluted to achieve the indicated concentration using 0.9% NaCl or 5% dextrose, or an organic solvent such as dimethylsulfoxide (DMSO) or alcohol, preferably a low molecular weight alcohol. Intraocular administration may be any of the routes and formulations previously described. For injection, either a solution, emulsion, suspension of a liquid, capsular formulation of microspheres or liposomes, etc. may be used."}, "[1]": {"settings": "cited from earlier work"}, "atopic dermatitis": {"system": "atopic dermatitis", "settings": "topical, cited from earlier work"}, "human skin mast cells": {"system": "human skin mast cells", "settings": "cited from earlier work"}}, "data": [{"smiles": "C=CC[C@@H]1/C=C(\\C)C[C@H](C)C[C@H](OC)[C@H]2O[C@@](O)(C(=O)C(=O)N3CCCC[C@H]3C(=O)O[C@H](/C(C)=C/[C@@H]3CC[C@@H](O)[C@H](OC)C3)[C@H](C)[C@@H](O)CC1=O)[C@H](C)C[C@@H]2OC", "note": "[Tacrolimus]", "values": [{"measurement": "dose of direct intraocular injection without substantial toxicity", "setting": "eye", "value": "up to 250 μg"}, {"measurement": "solubility in chloroform", "setting": "[1]; chloroform", "value": "very soluble"}, {"measurement": "solubility in ethanol", "setting": "[1]; ethanol", "value": "freely soluble"}, {"measurement": "solubility in methanol", "setting": "[1]; methanol", "value": "very soluble"}, {"measurement": "solubility in water", "setting": "[1]; water", "value": "practically insoluble"}, {"measurement": "adverse effects, treated versus control groups", "setting": "atopic dermatitis; concentrations up to 0.3%", "value": "no significant difference"}, {"measurement": "clinical improvement in atopic dermatitis", "setting": "atopic dermatitis; doses 0.03%-0.3%, after 2-3 weeks treatment", "value": "significant clinical improvement"}, {"measurement": "local tolerability", "setting": "atopic dermatitis", "value": "well tolerated locally and only occasionally causes mild irritation"}, {"measurement": "anti-IgE-triggered histamine release", "setting": "human skin mast cells", "value": "inhibits"}, {"measurement": "prostaglandin D2 synthesis", "setting": "human skin mast cells", "value": "inhibits"}]}]}
